SMILES strings stand for the structures.

For data set [1], the system named is SUM-149 cells. Put plainly: Cell cycle assay (PI, flow cytometry). The settings on record: 48 h. In kind it is cell-based, human. As to the method: SUM-149 cells were treated for 48 h with EP, then collected and washed in 1X PBS. The cells (5 × 10^5) were fixed and permeabilized in 70% ethanol at -20°C until further analysis. To measure the DNA content, the cells were washed and resuspended in 150 μL of PBS buffer then incubated in 100 μL of 100 μg/mL RNase A (MilliporeSigma, Burlington, MA, United States) for 15 min at RT, then 250 μL of 50 μg/mL Propidium Iodide (MilliporeSigma) was added. Samples were incubated at RT for 10 min and analyzed on a BD FACS Canto II flow cytometer (BD Biosciences, San José, CA, United States). Data were analyzed by using FlowJo software (V10, FlowJo, LLC, Ashland, OR, United States).

The subject of data set [2] is SUM-149 cells. Kind of data set: Cell migration assay (Boyden chamber). In kind it is cell-based, human. Particulars: 10 μM, 72 h. How it is done:
(§1) Cell migration and invasion were measured by using Corning® FluoroBlok^TM Cell Culture Inserts and performing BD BioCoat Matrigel invasion assays (BD Biosciences, San José, CA, United States) as described in [Martinez-Montemayor et al. (2011)] and [Suarez-Arroyo et al. (2016)].

Data set [3] deals with additional cancer cellular models. Kind of data set: Cell viability, additional cancer cellular models. Particulars: Supplementary Figure S2. In kind it is cell-based. As to the method:
(§2) Either 1 × 10^3–4.8 × 10^3 or 4 × 10^2–1.2 × 10^3 cells were seeded to each well of 96- or 384-well white polystyrene flat-bottomed plates (3610 or 8804BC, Corning) in 100 μL or 30 μL media per well, respectively. The concentrations used were experimentally determined to ensure logarithmic growth during the duration of the experiment and prevent adverse effects on cell growth by DMSO exposure. The plates were incubated at 37°C in 5% CO2 for 24 h before treatment. Stock solutions of test compounds (10 mM in DMSO) in nine 3-fold serial dilutions were dispensed via pintool (Biomek). The final concentration of DMSO was 0.3% (v/v) in each well. […] Luminescence was recorded in an Envision plate reader (PerkinElmer).
(§3) For the CTG assay, 3 or 4 replicate assays were conducted for each experimental condition, and a minimum of 3 independent experiments were conducted for cellular assays. The mean luminescence of each experimental treatment group was normalized as a percentage of the mean intensity of untreated controls. EC50 values (μM) were calculated by Pipeline Pilot Software (Accelrys, Enterprise Platform, San Diego, CA, United States). EC50 values (μM) from the viability assay were calculated from dose response curve-fitting via non-linear regression by using GraphPad Prism (Version 7.0, San Diego, CA, United States). […]

Data set [4] concerns MDA-MB-231 cells. Kind of data set: ApoTox-Glo Triplex assay, MDA-MB-231. It is filed as cell-based, human. How it is done: Cells (9.5 × 10^4/well in 75 μL of fresh medium) were dispensed in 96-well black flat bottom (8807BC, Corning) plates. The cells were incubated for 12 h at 37°C and then treated with compounds (25 μL) for 24 h. DMSO was used as a negative control, and staurosporine was used as the positive control. […] Then, the Caspase-Glo® 3/7 Reagent was added; plates were mixed briefly by orbital shaking (300-500 rpm for ∼30 s), followed by an additional 30 min incubation at RT. Then luminescence, which correlates with caspase 3/7 activation, was recorded with a plate reader to […] apoptosis induction.

For data set [5], the system named is SUM-149 cells. Put plainly: Matrigel invasion assay (Transwell). Particulars: 72 h. It is filed as cell-based, human. How it is done:
as §1

Data set [6] relates to MDA-MB-231 cells. Put plainly: Cell viability assay, MDA-MB-231. It is filed as cell-based. Particulars: Homo sapiens, Figure 4E. How it is done:
as §2, with “(PerkinElmer). […]” for “(PerkinElmer).”
as §3

Another data set deals with MCF10A cells. Put plainly: cells. In kind it is cell-based. As to the method: Cell viability assays (MTT or PI staining assays) in SUM-149, SUM-190, MDA-MB-231, and MCF10A cells were performed as we previously described ([Suarez-Arroyo et al., 2016]).
For the CTG assay, 3 or 4 replicate assays were conducted for each experimental condition, and a minimum of 3 independent experiments were conducted for cellular assays. The mean luminescence of each experimental treatment group was normalized as a percentage of the mean intensity of untreated controls. EC50 values (μM) were calculated by Pipeline Pilot Software (Accelrys, Enterprise Platform, San Diego, CA, United States). EC50 values (μM) from the viability assay were calculated from dose response curve-fitting via non-linear regression by using GraphPad Prism (Version 7.0, San Diego, CA, United States). For cell viability, colony formation, cell-cycle progression, cell death, and western blot assays, the analyses were performed via one-way or two-way ANOVA with post-testing for each condition (concentration, cell cycle stage, apoptotic event, cell line) by using GraphPad Prism.

In data set [7] the test system is MDA-MB-231 cells. Put plainly: ROS measurement (CellROX green), MDA-MB-231. In kind it is cell-based, human. Particulars: EP 20 μM, 1 h. As to the method: SUM-149 or MDA-MB-231 were plated in 96-well plates at a density of 2 × 10^4 and 1 × 10^4 cells/well, respectively, in black 96-well clear bottom tissue culture plates and incubated for 24 h at 37°C. The mRuby-Mito-7 plasmid was obtained from Addgene (#55874 from Michael Davidson). A stable clone of MCF-7 was generated by using Fugene 6 (Roche) to transfect cells (2 × 10^5) with plasmid (2.0 μg) under neomycin selection. A stable cell line was selected by using G418 (300 μg/mL) for 2 weeks, sorted by flow cytometry, and maintained under G418 thereafter. Transfected MCF-7 cells were plated at a density of 2 × 10^4 cells/well in black 96-well clear bottom tissue culture plates and incubated overnight at 37°C. To test for ROS formation and remove background, cells were replenished with fresh PBS with 2% FBS and treated with the desired compounds for 1 h at 37°C. DMSO (0.5%) was used as a negative control, while Menadione (Mena, at 10 μM) or t-Butyl hydroperoxide (TBHP) at 100 μM final concentration were used as a positive control. To evaluate the compounds’ effects on ROS formation inhibition, the free radical scavenger N-acetyl cysteine (NAC) was used. […] Fluorescence intensity was measured in a Clariostar® plate reader (BMG LABTECH, Cary, NC, United States) at 535 nm.

A further data set concerns BCR-ABL cells. Kind of data set: Cell Titer Glo viability assay, BCR-ABL. In kind it is cell-based, murine. Particulars: Mus musculus, 72-h treatment. As to the method: as §2, §3

`CC(C)[C@@H](C)/C=C/[C@@H](C)[C@H]1CC[C@@H]2[C@]1(C)CC[C@H]1[C@]23C=C[C@]2(C[C@@H](O)CC[C@]12C)OO3` [EP, ergosterol peroxide]: in the data set on SUM-149 cells [1] (20μM), the “percentage of cells in G0” value worked out at 1.7%, the “percentage of cells in G1” value amounted to 81%, the “percentage of cells in G2/M” value was 9.8% and the “percentage of cells in S” value is on record as 5.4%. In the data set on SUM-149 cells [1] (vs vehicle), the “increase in percentage of cells in G1 phase” value is reported as approximately 20% and the “reduction of the percentage of cells in G2/M” value is on record as approximately 10%. Further, in the data set with SUM-149 cells [2], the cancer cell migration entry is listed as “decreases cancer cell migration”. Moreover, in data set [3], the EC50 was in the range of 7 to 22 µM. In the data set with MDA-MB-231 cells [4] (MDA-MB-231), the “cytotoxicity by membrane integrity” value was “increased cytotoxicity”. In addition, in the data set with MDA-MB-231 cells [4] (MDA-MB-231, 24 h), the “caspase 3/7 activity” value is “increase caspase 3/7 activity” and the “viability (GF-AFC)” value is on record as “decrease viability”. Moreover, the invading cells entry in the data set with SUM-149 cells [5] (10 μM) is recorded as “significant reduction”. In the data set with SUM-149 cells [5] (15 μM), this molecule gave a decrease in invasion of 43%. The molecule further displayed a concentration for a half-maximal effect (EC50) in the data set with MDA-MB-231 cells [6] of 19 µM. Besides, the “cytotoxicity in MCF10A non-cancerous mammary epithelial cells” value with MCF10A cells is on record as “did not induce cytotoxicity”. Besides, in the data set on MCF10A cells (Homo sapiens, MCF-10A, PI staining, 72-h treatment), the half-maximal effective concentration (EC50) is more than 100 µM. Further, the “ROS formation (fold)” value in the data set on MDA-MB-231 cells [7] is reported as “twofold”. Also, in the data set with BCR-ABL cells, the concentration for a half-maximal effect (EC50) stood at 6.9 µM.

For the origin of these results see PMC6389703, “Identification of Biologically Active Ganoderma lucidum Compounds and Synthesis of Improved Derivatives That Confer Anti-cancer Activities in vitro” (Frontiers in Pharmacology, 2019).
